What was measured:
[1] = target: T1, human P2X4 (Homo sapiens, UniProt Q99571); assay: Human P2X4 HEK Cell FLIPR Assay; type: cell-based; conditions: HEK293 stably expressing human P2X4, agonist Bz-ATP 3 μM (EC80); for IC50: read-out: Human P2X4 HEK Cells (FLIPR Assay) avg IC50
T1 construct: expressed in transfected cells
T1 sequence (Q99571 1-388): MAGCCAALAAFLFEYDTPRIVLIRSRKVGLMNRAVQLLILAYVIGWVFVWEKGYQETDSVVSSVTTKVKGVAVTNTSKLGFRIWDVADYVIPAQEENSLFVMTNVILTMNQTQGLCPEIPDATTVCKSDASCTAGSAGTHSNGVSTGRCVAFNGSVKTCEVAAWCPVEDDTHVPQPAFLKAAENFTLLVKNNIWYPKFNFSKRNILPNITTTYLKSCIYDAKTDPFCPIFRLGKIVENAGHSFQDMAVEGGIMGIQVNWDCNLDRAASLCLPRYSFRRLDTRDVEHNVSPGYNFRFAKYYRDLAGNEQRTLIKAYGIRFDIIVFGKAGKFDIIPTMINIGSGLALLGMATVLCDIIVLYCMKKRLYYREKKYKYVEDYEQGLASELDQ
Summary of the method: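 HEK293 cells stably expressing human P2X4 were loaded with Fluo8-AM (30 min, 37 °C, HBSS/HEPES pH 7.4 with probenecid), then preincubated 30 min at room temperature with compound, 25 μM–1 nM final, 0.5% DMSO. Bz-ATP-evoked calcium fluorescence was read on FLIPR; data were normalized to agonist control and given a four-parameter fit for IC50.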

[2] = target: T2, rat P2X4 (Rattus norvegicus, UniProt P51577); assay: FLIPR Method for Rat P2X4 1321N1 Astrocytoma Cells; type: cell-based; conditions: 1321N1 stably expressing rat P2X4; agonist MgATP 5 μM (EC80)
T2 construct: expressed in transfected cells
T2 sequence (P51577 1-388): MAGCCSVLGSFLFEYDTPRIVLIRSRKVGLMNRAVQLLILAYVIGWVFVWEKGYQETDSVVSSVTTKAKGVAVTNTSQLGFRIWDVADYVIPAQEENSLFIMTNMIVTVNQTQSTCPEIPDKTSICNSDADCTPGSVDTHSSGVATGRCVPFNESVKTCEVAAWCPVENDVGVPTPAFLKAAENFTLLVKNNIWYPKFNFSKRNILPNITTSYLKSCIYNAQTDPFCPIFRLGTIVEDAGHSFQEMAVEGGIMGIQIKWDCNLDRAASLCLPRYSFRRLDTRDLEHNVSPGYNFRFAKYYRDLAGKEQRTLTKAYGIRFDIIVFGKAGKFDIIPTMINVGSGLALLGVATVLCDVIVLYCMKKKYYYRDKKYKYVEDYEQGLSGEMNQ
Summary of the method: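 1321N1 cells stably expressing rat P2X4, Fluo8-AM loaded; compounds (25 μM to 1 nM final, ten concentrations) preincubated 30 min at room temperature, then MgATP added at 5 μM (EC80). Calcium fluorescence read on FLIPR before and after agonist; triplicate data normalized to agonist control, four-parameter fit gives IC50.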

SMILES | Human P2X4 HEK Cells (FLIPR Assay) avg Efficacy [1] | IC50 [1] | IC50 [2] | Rat P2X4 1321N1 Astrocytoma Cells (FLIPR Assay) avg Efficacy [2]
CC(=O)N(c1cc(F)cc(F)c1)c1cc(NC(=O)Cc2ccccc2Cl)ccn1 [Example 86, N-{4-[2-(2-chlorophenyl)acetamido]pyridin-2-yl}-N-(3,5-difluorophenyl)acetamide] | 98% | 196 nM | 393 nM | 98%
CC(=O)N(c1cc(F)cc(F)c1)c1cc(NC(=O)Cc2ccc(F)cc2Cl)ccn1 [Example 87, N-{4-[2-(2-chloro-4-fluorophenyl)acetamido]pyridin-2-yl}-N-(3,5-difluorophenyl)acetamide] | 98% | 313 nM | 983 nM | 94%
CC(=O)N(c1cc(F)cc(F)c1)c1cc(NC(=O)Cc2cccc(F)c2Cl)ccn1 [Example 88, N-{4-[2-(2-chloro-3-fluorophenyl)acetamido]pyridin-2-yl}-N-(3,5-difluorophenyl)acetamide] | 97% | 198 nM | 451 nM | 100%
CC(=O)N(c1cc(F)cc(F)c1)c1cc(NC(=O)Cc2c(Cl)cccc2Cl)ccn1 [Example 89, N-{4-[2-(2,6-dichlorophenyl)acetamido]pyridin-2-yl}-N-(3,5-difluorophenyl)acetamide] | 99% | 169 nM | 103 nM | 98%
CC(=O)N(c1cc(F)cc(F)c1)c1cc(NC(=O)Cc2c(Cl)cc(F)cc2Cl)ccn1 [Example 90, N-{4-[2-(2,6-dichloro-4-fluorophenyl)acetamido]pyridin-2-yl}-N-(3,5-difluorophenyl)acetamide] | 98% | 272 nM | 110 nM | 97%
CC(=O)N(c1cc(F)cc(F)c1)c1cc(NC(=O)Cc2ccccc2OC(F)(F)F)ccn1 [Example 91, N-(3,5-difluorophenyl)-N-(4-{2-[2-(trifluoromethoxy)phenyl]acetamido}pyridin-2-yl)acetamide] | 98% | 345 nM | 1630 nM | 100%
COc1cccc(N(C(C)=O)c2cc(NC(=O)Cc3ccccc3Cl)ccn2)c1 [Example 100, N-{4-[2-(2-chlorophenyl)acetamido]pyridin-2-yl}-N-(3-methoxyphenyl)acetamide] | 98% | 408 nM | 965 nM | 98%
COc1cccc(N(C(C)=O)c2cc(NC(=O)Cc3cccc(F)c3Cl)ccn2)c1 [Example 101, N-{4-[2-(2-chloro-3-fluorophenyl)acetamido]pyridin-2-yl}-N-(3-methoxyphenyl)acetamide] | 97% | 406 nM | 971 nM | 100%
CC(=O)N(c1cc(NC(=O)Cc2ccccc2Cl)ccn1)c1cc(F)ccc1Cl [Example 111, N-(2-chloro-5-fluorophenyl)-N-{4-[2-(2-chlorophenyl)acetamido]pyridin-2-yl}acetamide] | 96% | 204 nM | 320 nM | 100%
CC(=O)N(c1cc(NC(=O)Cc2ccc(F)cc2Cl)ccn1)c1cc(F)ccc1Cl [Example 112, N-(2-chloro-5-fluorophenyl)-N-{4-[2-(2-chloro-4-fluorophenyl)acetamido]pyridin-2-yl}acetamide] | 96% | 403 nM | 408 nM | 97%
